Earlier results on one compound are cited in patent publication US20140323416A1, “5-METHYLDIHYDROMORPHONE COMPOUNDS FOR TREATMENT OF PAIN” (priority 2013, published 2014).

Regarding `CN1CC[C@]23c4c5ccc(O)c4O[C@@]2(C)C(=O)CC[C@H]3[C@H]1C5` [Metopon, metopon], where the note is “in vivo”, the bioavailability result is “low bioavailability” and the emetic action entry is “nearly devoid of emetic action”. Also, under “relative to morphine”, the analgesic effectiveness entry was “at least double to that of morphine”, the duration of action entry was “about equal to that of morphine”, the physical dependence entry is recorded as “built up more slowly than with morphine” and the potency result is recorded as “reduced potency relative to morphine”. In addition, where the note is “relative to morphine”, the tolerance entry was “develop more slowly and to disappear more quickly”. In addition, the respiratory depression result (therapeutic analgesic doses) is “little or no respiratory depression”. For the same compound, the mental dullness entry (therapeutic analgesic doses, relative to morphine) is recorded as “much less mental dullness than morphine”.
